This note sets out measurements from a melting point compilation (Tetko et al.; mined from patent text by program, amines drawn as free bases though some values may be those of a salt).

As to `O=C1c2cc([N+](=O)[O-])cc3cc([N+](=O)[O-])cc(c23)C(=O)N1O`, the melting point is 317 to 320 °C.

On to `Cc1cn2nc(-c3ccccc3)nc2cc1NC(=O)c1c(C(=O)N2CCC2)cnn1C`, for which the melting point fell in the range of 226 to 228 °C.

Consider `COc1cc(OCC2CC2)c(/C=C/C(=O)c2ccc(C(=O)O)cc2)cc1-c1cccs1`, for which the melting point lay in the range of 187 to 191 °C.

Consider `Cn1ccnc1CNC(=O)c1[nH]c2ccc(Cl)cc2c1S(=O)(=O)c1cccc(Cl)c1`, for which the melting point was 232 to 234 °C.

Molecule `COc1cc2c(cc1C)CCN=C2CCc1ccc(Cl)cc1` displayed a melting point of 122 to 124 °C.

`CCNC(=O)c1cccc(F)c1Nc1nc(Cl)ncc1Cl`: the melting point lay in the range of 233 to 234 °C.

In the case of `O=C1C=C(NC(=O)C(=O)c2cn(Cc3cccc(C(F)(F)F)c3)c3cc([N+](=O)[O-])ccc23)CO1`, the melting point was in the range of 279 to 281 °C.

Consider `ON=C(c1ccccc1)c1ccc(C(=NO)c2ccc(C(=NO)c3ccccc3)cc2)cc1`, for which the melting point was in the range of 224 to 225 °C.

As for `CC(C)(F)CC(=O)c1cc(C(C)(C)C)c(O)c(C(C)(C)C)c1`, the melting point came to 94 °C.

Turning to `COc1cc(Cc2cnc(NCCSCc3nccs3)[nH]c2=O)ccn1`, the melting point came to 106 °C.

Turning to `COC(=O)c1cccc(OC)c1OS(=O)(=O)NC(=O)Nc1nc(OC)cc(OC)n1`, the melting point lay within 169 to 170 °C.

Consider `C=CCN1CC(=O)N2CCC[C@H]2C1=O`, for which the melting point fell in the range of 106 to 109 °C.

With `CCOc1cc(Cc2cnc(N)nc2N)cc2c1OC(C)(C)C=C2CC(C)C`, the melting point came out at 188 °C.

`O=C1NC2C3C=CC(C3)C12` (configuration not stated) gave a melting point of 94 to 97 °C.

For `O=C(O)CSCC(Cc1ccccc1)NCCS` (configuration not stated), the melting point is 201 °C.

Regarding `O=C(c1cc2cc([N+](=O)[O-])ccc2[nH]1)N1CC(CCl)c2c1cc([N+](=O)[O-])c1ccccc21` (configuration not stated), the melting point is over 300 °C.

In turn, `c1ccc2c(c1)CSc1ccccc1C2n1ccnc1` (configuration not stated) returned a melting point of 162 to 164 °C.

Take `C#CCOc1cc(Cl)cc(Cl)c1OCC#C`: the melting point was in the range of 61 to 63 °C.

The molecule `Cc1nc(-n2ccc(OCCC3CC3)cc2=O)sc1C(=O)NCc1ccccc1` displayed a melting point of 172 to 174 °C.

Regarding `O=[N+]([O-])c1cc(Br)ccc1N1CCc2ccccc21`, the melting point was 100 to 102 °C.

Turning to `CC(C)(C)Nc1nc2cc(Cl)c(Cl)cc2[nH]1`, the melting point lay in the range of 219 to 221 °C.

`O=C(c1ccc(Cl)cc1)c1cc([N+](=O)[O-])ccc1N1CCC(Cc2ccccc2)CC1` displayed a melting point of 211 °C.

Consider `COc1cccc(CC(=O)O)c1OCCCc1cn(-c2ccc(C(F)(F)F)cn2)nc1C(C)C`, for which the melting point is 142 to 143 °C.

The molecule `COC1OCC[C@@H]1NC(=O)[C@H](CC(C)C)NC(=O)[C@H](CC(C)C)NC(=O)c1ccc2c(c1)Nc1ccccc1O2` (some centres not stated) displayed a melting point of 178 to 179 °C.

Take `O=c1cc[nH]c2c([N+](=O)[O-])cc(C(F)(F)F)cc12`: the melting point was 153 to 156 °C.

Turning to `COc1cc(COc2nn(C)cc2/C=C\c2cscn2)ccc1OCc1nc(-c2ccco2)oc1C`, the melting point was in the range of 97 to 98 °C.

`CNC(=O)[C@@H]1CSCN1S(=O)(=O)c1ccc(Cl)c(COc2cccc3c(-n4ccnc4)cc(C)nc23)c1Cl`: the melting point was found to be 120 °C.

In turn, `O=C(CNC(=O)c1ccc(Cl)cc1)c1ccsc1` came in with a melting point of 160 to 161 °C.

In turn, `CC(C)CCn1c(=O)c(=NNc2ccccc2)c(=O)n(-c2ccccc2)c2ccccc21` yielded a melting point of 143 °C.

`CCCC(=O)c1cnc2cc(COC(=O)c3ccccc3)ccc2c1Cl` yielded a melting point of 66 to 68 °C.

The molecule `O=Cc1ncc(C(O)C(F)(F)F)s1` (configuration not stated) returned a melting point of 64 to 66 °C.

As for `CCCn1c(=O)c(C=O)c2n(c1=O)CCCS2`, the melting point fell in the range of 153 to 154 °C.

Take `CC(c1oc2ccccc2c(=O)c1-c1cccc(F)c1)n1nc(-c2cccc(OC(F)F)c2)c2c(N)ncnc21` (configuration not stated): the melting point lay in the range of 176 to 179 °C.

Molecule `CC(C)(Oc1ccc(CCC(O)c2ccc(-c3ccc(C(F)(F)F)cc3)s2)c(Cl)c1Cl)C(=O)O` (configuration not stated) came in with a melting point of 54 to 56 °C.

`NC(=O)CNC(=O)c1cccc(-c2cccc3oc(Cc4cccc(C(F)(F)F)c4)cc23)c1` registered a melting point of 105 to 106 °C.

In turn, `CCc1cc(-c2ccc(-c3ccnn3C)cc2)ccc1OC` registered a melting point of 97 to 100 °C.

Molecule `CCCCCCCCCCCCOc1ccc(C(=O)O)c(O)c1` registered a melting point of 98 to 100 °C.

`Brc1ccc(SC2CCN(C(c3ccccc3)(c3ccccc3)c3ccccc3)CC2)cc1` registered a melting point of 174 to 175 °C.

Take `N#Cc1ccc(N2C(=O)NC3(CCS(=O)CC3)C2=O)cc1C(F)(F)F` (configuration not stated): the melting point lay in the range of 260 to 277 °C.

`CN1CC=C(c2c[nH]c3ccc(O)cc23)CC1`: the melting point fell in the range of 182 to 185 °C.

`COC(=O)c1ccc2oc(-c3cc(C)ccc3OC(C)C)cc(=O)c2c1` yielded a melting point of 149 to 151 °C.

In the case of `OCc1cc2ccsc2s1`, the melting point lay in the range of 85 to 87 °C.

For the molecule `CC(CC(=O)O)C(=O)c1ccc(N2CCOCC2)c([N+](=O)[O-])c1` (configuration not stated), the melting point is 127 to 129 °C.

Regarding `COc1ccc(Br)c(COc2ccc3ccc(OC)cc3c2)c1`, the melting point lay in the range of 156 to 157 °C.

Regarding `O=C(/C=C/c1c(-c2ccc(F)cc2)nc2sccn12)c1ccc2ccccc2c1`, the melting point is 216 to 218 °C.

Regarding `Cn1c2ccc(Cl)cc2c2c3ccccc3c(=O)[nH]c21`, the melting point was over 300 °C.

Regarding `CC(C)(C)OC(=O)C=C(c1ccc(C#N)cc1)n1ccnc1`, the melting point lay within 151 to 153 °C.

`CC(C#N)(C#N)Cc1ccc(Cl)cc1`: the melting point stood at 91.1 °C.

In turn, `CCOC(=O)COc1ccnc2c(N)cccc12` came in with a melting point of 94 °C.

Take `CC(C)c1ccc2c(c1)c(Sc1nc3cc(Cl)ccc3s1)c(CC(C)(C)C(=O)O)n2Cc1ccc(Cl)cc1`: the melting point was in the range of 154 to 156 °C.

`COC(=O)c1cc(N)ccc1O` had a melting point of 93 to 95 °C.

`CC(=O)Nc1ccc(S(=O)(=O)c2ccc(Br)cc2)cc1` displayed a melting point of 195 to 199 °C.

In the case of `O=[N+]([O-])CSc1ccc(Oc2ccccc2)cc1`, the melting point was in the range of 100 to 102 °C.

In turn, `COc1ccc(SCCCCNC(P(=O)(O)O)P(=O)(O)O)cc1` came in with a melting point of 188 to 189 °C.

Molecule `CC(C)(C)NCC(O)COC(=O)c1ccc(OCc2ccccc2)c(OCc2ccccc2)c1` (configuration not stated) displayed a melting point of 85 to 86 °C.

On to `CNC(=O)CC(SC(=O)c1ccccc1)C(CC(C)C)C(=O)NC(Cc1ccc(OC)cc1)C(=O)NC` (configuration not stated), for which the melting point was in the range of 140 to 144 °C.

`CCCSc1nc(N)n(-c2nnc(-c3ccccc3O)s2)n1` yielded a melting point of 195 to 198 °C.

On to `CC(C)N(CCC1(c2ccccc2Cl)CC(=O)NC1=O)C(C)C` (configuration not stated), for which the melting point fell in the range of 116 to 119 °C.

In the case of `CC(C)OC(=O)C(O)C(CC1CCCCC1)NC(=O)C(Cc1c[nH]cn1)NC(=O)C(CCOc1ccc(F)cc1)Cc1cccc2ccccc12` (mixture of isomers), the melting point lay in the range of 87 to 91 °C.

On to `CC(C)(C)C(O)(Cc1ccccc1)C(Cn1ccnc1)Oc1ccc(Cl)cc1` (configuration not stated), for which the melting point was in the range of 179 to 181 °C.

The molecule `Cn1cc(-c2cc3cccnc3[nH]2)c2cc(OC3(C(N)=O)CCC3)ccc21` registered a melting point of 267 to 268 °C.

Turning to `Nc1cccc(-c2n[nH]c3ncnc(Nc4cccc(Cl)c4)c23)c1`, the melting point lay in the range of 264 to 266 °C.

Molecule `Cc1c(NC(=O)c2ccc(-c3ccccc3)cc2F)ccc2cc(CN3CCCCCC3)cnc12` had a melting point of 151 to 153 °C.

Regarding `COc1ccc(S(=O)(=O)Nc2ccccc2C=Cc2cccnc2)cc1`, the melting point was in the range of 131 to 132 °C.

Turning to `CCCCOC(=O)c1ccccc1SN(C(=O)NC(=O)c1c(F)cccc1F)c1ccc(C(F)(F)F)cc1`, the melting point is 79 to 81 °C.

Take `CCCCCCCCCCCCCCCCCC(=O)Nc1cccc(C(=O)N(CC(=O)OCC)CC(=O)OCC)c1`: the melting point fell in the range of 76 to 79 °C.

`COc1ccc(CN2CC=C(/C=C/c3ccc(C#N)cc3)CC2)cc1` registered a melting point of 120 to 121 °C.

Consider `CCOCCCCC(=O)c1ccc(S(C)=O)cc1` (configuration not stated), for which the melting point lay within 69 to 71 °C.

As for `O=C(NCCCc1ccccc1)Oc1ccccc1`, the melting point is 55 to 56 °C.

As for `Fc1cccc(-c2nc3cnccc3[nH]2)c1`, the melting point was in the range of 290 to 291 °C.

In turn, `C=CCOC(=O)Cc1cccc(NC(=O)NCNC(=O)c2ccccc2C(=O)c2ccccc2)c1` had a melting point of 125 to 127 °C.

The molecule `Cc1nsc(OCC(F)(F)F)c1S(=O)(=O)NC(C)(C)C` came in with a melting point of 87 to 90 °C.

Take `Oc1ccc(Sc2cccc(O)n2)cc1`: the melting point was in the range of 234 to 238 °C.

For `CC1(C)C2CCC1(C(=O)P(=O)(c1ccccc1)c1ccccc1)C(=O)C2=O` (configuration not stated), the melting point worked out at 92.1 °C.

As for `CCOC(=S)CC/C(C)=C/Cc1c(O)c2c(c(C)c1OC)COC2=O`, the melting point lay in the range of 63 to 67 °C.

In the case of `O=C1N(Cc2ccccn2)c2cccc(-c3ccoc3)c2C12COc1cc3c(cc12)CCO3` (configuration not stated), the melting point lay within 195 to 197 °C.

In the case of `Clc1ccc(C2Cc3cnc(Nc4ccc(CCN5CCOCC5)cc4)nc3-c3ccccc32)cc1Cl` (configuration not stated), the melting point is 166 to 167 °C.

`CC12CC(N3CCCCC3)CCC1CCC1C2CCC2(C)C(O)C(N3CCCCC3)CC12` (configuration not stated): the melting point lay within 176 to 181 °C.

With `CCc1cc(C)c2c(n1)-c1ccccc1C2=O`, the melting point is 68 to 70 °C.

Consider `COC(=O)c1ccc2c(c1)OC(C)(C)C(=O)N2C(C)C`, for which the melting point fell in the range of 62 to 63 °C.

The molecule `COc1ccc(-c2nccc3c(CC(=O)O)cccc23)cc1` came in with a melting point of 210 to 211 °C.

As for `CC(=O)Oc1cccc(Br)c1`, the melting point lay in the range of 33 to 40 °C.

Molecule `CCCCCCCCCCCCNC(=O)Nc1sc(C(=O)O)c(C)c1C(=O)OC(C)(C)C` registered a melting point of 187 to 188 °C.

Molecule `CCOc1cc(OC)ccc1C(CC(=O)Nc1cc(C(N)=O)ccc1C(C)(C)C)CC(C)C` (configuration not stated) registered a melting point of 216 to 217 °C.

For the molecule `CC(C)(C)C(CO)NC(=O)C(CC(=O)O)n1ccc(-c2ccc(-c3ccc(C(N)=O)cc3)cc2)c1` (configuration not stated), the melting point fell in the range of 192 to 194 °C.

In turn, `CN(C)C=CC(=O)c1ccncc1` came in with a melting point of 114 to 116 °C.

`N#CCCNC(=O)c1cccc(-c2ccc3c(n2)N(Cc2ccc(Cl)cc2Cl)CC3)c1` came in with a melting point of 156 to 157 °C.

For orientation: melting point means the temperature of the solid-liquid transition.
